The assay relates to P. aeruginosa strain FI-6(A366). The assay can be described thus: Opsonophagocytic assay (bactericidal activity with complement and polymorphonuclear cells). It is filed as cell-based. As to conditions: cefepime alone, 0 µg/ml 6D7 data point of Figure 1. On the procedure:
Overnight cultures of P. aeruginosa FI-6 in adjusted Miller-Hinton broth containing 50 mg/l calcium chloride and 25 mg/l magnesium chloride were innoculated into media lacking or containing 1 µg/ml amikacin; this concentration of antibiotic allows almost normal growth of the bacterial culture. The bacterial cultures were incubated until mid-logarithmic phase of growth was attained, and then the bacteria were harvested by centrifugation, and resuspended to 5 x 10⁴ cells/ml in gelatin veronal buffer. […] Opsonic activity of antibodies directed against amikacin-treated bacteria was determined in the presence of 1 µg/ml amikacin. […] The amount of bacterial killing, was determined by plating 25 µl from each tube onto solid agar, growing the plated bacteria overnight, and counting the number of colonies on the plate. […]
The opsonophagocytic activity of varying amounts of monoclonal antibody 6D7 towards P. aeruginosa strain FI-6 cells was determined in the presence or absence of subinhibitory concentrations of the antibiotic, cefepime. […]

1 compound from EP0450573A2, “Antibodies for the treatment and diagnosis of Pseudomonas aeruginosa infections” (priority 1990, dated 1991) can be followed below.

On to `CO/N=C(\C(=O)N[C@@H]1C(=O)N2C(C(=O)[O-])=C(C[N+]3(C)CCCC3)CS[C@H]12)c1csc(N)n1` [cefepime], for which the survival was 100%.
